From ChEMBL document CHEMBL5236626, “Synthesis and pharmacokinetic properties of novel cPLA2α inhibitors with 1-(carboxyalkylpyrrolyl)-3-aryloxypropan-2-one structure” (Bioorg Med Chem, 2023)
pIC50: −log10 of the molar value. Converted amounts (≈) assume the structure as drawn.

Key:
[1] = Drug concentration in C57Bl/6 mouse plasma at 30 mg/kg,po observed after 2 hrs by HPLC-MS analysis; type: ADME, organism-based
[2] = Permeability across apical to basolateral side in human Caco-2 cells at 10 uM incubated for 2 hrs by HPLC-MS analysis; type: ADME, cell-based; conditions: caco-2, 2 h
[3] = Inhibition of porcine cytosolic phospholipase A2 alpha using SAPC and 2-dioleoyl-sn-glycerol as substrate incubated for 60 mins by HPLC-UV analysis; design: species or system Sus scrofa
[4] = Metabolic stability in rat liver S9 fraction assessed as parent compound remaining at 20 uM incubated for 30 mins in presence of NADPH by HPLC-MS analysis; type: ADME, subcellular; conditions: read-out: Stability
[5] = Metabolic stability in rat liver S9 fraction assessed as parent compound remaining at 5 uM incubated for 30 mins in presence of UDPGA by HPLC-MS analysis; type: ADME, subcellular; conditions: read-out: Stability
[6] = Partition coefficient,logP of compound by reversed-phase HPLC analysis; type: physicochemical; conditions: octanol/water
[7] = Kinetic solubility of compound in PBS at pH 7.4 incubated for 24 hrs by HPLC-UV analysis; type: physicochemical; conditions: read-out: Kinetic_solubility
[8] = Thermodynamic solubility of the compound in PBS at pH 7.4 incubated for 20 hrs by HPLC-UV analysis; type: physicochemical; conditions: read-out: Therm_solubility
Sus scrofa = species: Sus scrofa; test: Inhibition of porcine cytosolic phospholipase A2 alpha using SAPC and 2-dioleoyl-sn-glycerol as substrate at 10 uM incubated for 60 mins by HPLC-UV analysis
[9] = Apparent permeability across apical to basolateral side in human Caco-2 cells at 10 uM incubated for 2 hrs by HPLC-MS analysis; type: ADME, cell-based

| Structure (SMILES) | pIC50 [3] | remaining at 0.5 h, 20 µM [4] [%] | remaining at 0.5 h, 5 µM [5] [%] | logP [6] | further results |
| --- | --- | --- | --- | --- | --- |
| CCCCCCCCc1ccc(OCC(O)Cn2cc(CCC(=O)O)c(C(=O)C(C)C)c2)cc1 (stereo not drawn) | – | – | – | – | concentration at 2 h [1]: 50 ng/mL; permeability [2]: Permeable |
| CC(C)C(=O)c1cn(CC(=O)COc2ccc(Oc3ccc(C(F)(F)F)cc3)cc2)cc1CCC(=O)O | 7.09 | < 5 | > 90 | 4 | – |
| CC(C)C(=O)c1cn(CC(=O)COc2ccc3c(ccn3-c3ccc(F)cc3)c2)cc1CCC(=O)O | 6.51 | < 5 | > 90 | 3.3 | – |
| CC(C)C(=O)c1cn(CC(=O)COc2ccc(C34CC5CC(CC(C5)C3)C4)cc2)cc1CCC(=O)O | 7.29 | 20 | > 90 | 5.6 | – |
| CCCCCCCCc1ccc(OCC(=O)Cn2cc(CCC(=O)O)c(C(=O)C(C)C)c2)cc1 | 7.28 | 54 | > 90 | 6.3 | solubility kinetic at 24 h [7]: 174 µg/mL (≈ 371 µM) |
| CC(C)C(=O)c1cn(CC(=O)COc2ccc(-c3ccc(C(F)(F)F)cc3)cc2)cc1CCC(=O)O | 6.77 | 34 | > 90 | 4 | – |
| CCCCCCCCc1ccc(OCC(=O)Cn2cc(C(=O)C(C)C)cc2CCCC(=O)O)cc1 | 6.19 | 59 | > 90 | – | – |
| CCCCCCCCc1ccc(OCC(=O)Cn2cc(C(=O)C(C)C)cc2CCC(=O)O)cc1 | 6.34 | 60 | > 90 | – | solubility kinetic at 24 h [7]: ≥ 250 µg/mL; solubility thermodynamic at 20 h [8]: 394 µg/mL (≈ 839 µM); concentration at 2 h [1]: 220 ng/mL; permeability [2]: Impermeable |
| CC(C)C(=O)c1cn(CC(=O)COc2ccc(Oc3ccccc3)cc2)c2ccc(C(=O)O)cc12 | 7.92 | – | – | – | – |
| CCCCCCCCc1ccc(OCC(=O)Cn2c(C)c(CCC(=O)O)c(C(=O)C(C)C)c2C)cc1 | < 5.00 | 39 | > 90 | – | inhibition (Sus scrofa): 45% |
| COc1cccc2c1C(=O)c1c(O)c3c(c(O)c1C2=O)C[C@@](O)(C(C)=O)C[C@@H]3O[C@H]1C[C@H](N)[C@H](O)[C@H](C)O1 [DAUNORUBICIN] | – | 28 | 32 | – | – |
| COc1ccc2c(c1)c(CC(=O)O)c(C)n2C(=O)c1ccc(Cl)cc1 [INDOMETHACIN] | – | – | – | – | Papp A→B at 2 h, 10 µM [9]: 18 ×10⁻⁶ cm/s |
| CCCCCCCCc1ccc(OCC(=O)Cn2cc(CCCC(=O)O)c(C(=O)C(C)C)c2)cc1 | 6.35 | 25 | > 90 | – | – |

More lines, in order of rising pIC50 [3], values ahead:

| pIC50 [3] | remaining at 0.5 h, 20 µM [4] [%] | remaining at 0.5 h, 5 µM [5] [%] | logP [6] | Structure (SMILES) | further results |
| --- | --- | --- | --- | --- | --- |
| 7.40 | 25 | > 90 | – | CCCCCCCCc1ccc(OCC(=O)Cn2cc(CC(=O)O)c(C(=O)C(C)C)c2)cc1 | – |
| 7.42 | 21 | > 90 | 3.9 | Cc1noc(-c2cn(CC(=O)C(C)Oc3ccc(Oc4ccc(Cl)cc4)cc3)cc2CCC(=O)O)n1 (stereo not drawn) | – |
| 7.49 | 15 | > 90 | 3.3 | Cc1noc(-c2cn(CC(=O)C(C)Oc3ccc(Oc4ccc(F)cc4)cc3)cc2CCC(=O)O)n1 (stereo not drawn) | – |
| 7.80 | 30 | > 90 | 4.1 | Cc1noc(-c2cn(CC(=O)C(C)Oc3ccc(Oc4ccc(C(F)(F)F)cc4)cc3)cc2CCC(=O)O)n1 (stereo not drawn) | permeability [2]: Permeable |
| 7.82 | 30 | < 5 | – | CCCCCCCCc1ccc(OCC(=O)Cn2cc(-c3nc(C)no3)c3cc(C(=O)O)ccc32)cc1 | – |
| 7.89 | 62 | > 90 | 6.5 | CCCCCCCCc1ccc(OC(C)C(=O)Cn2cc(CCC(=O)O)c(-c3nc(C)no3)c2)cc1 (stereo not drawn) | solubility kinetic at 24 h [7]: 10 µg/mL (≈ 20.2 µM) |
| 8.00 | – | – | – | CCCCCCCCc1ccc(OCC(=O)Cn2cc(C(=O)C(C)C)c3cc(C(=O)O)ccc32)cc1 | – |
| 8.19 | – | – | – | CCCCCCCCCCOc1ccc(OCC(=O)COc2ccc(C(=O)O)cc2)cc1 | – |
| 9.00 | 43 | > 90 | 6.1 | CCCCCCCCc1ccc(OCC(=O)C(C)n2cc(CCC(=O)O)c(-c3nc(C)no3)c2)cc1 (stereo not drawn) | – |
| 9.00 | 34 | > 90 | 5.9 | CCCCCCCCc1ccc(OCC(=O)Cn2cc(CCC(=O)O)c(-c3nc(C)no3)c2)cc1 | – |
